PubChem BioAssay (NCI)
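Step 1: Grow cells in 96-well plates. Step 2: Expose to compound for 48 hours at 5 concentrations. Step 3: Interpolate endpoints linearly; if unreached, use highest concentration. TGI is the concentration that stops growth completely.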

How the values were obtained:
Test in all cases: inhibition of tumour cell growth, NCI panel, 48 h
HOP-62 NSCLC = system: HOP-62 NSCLC
TK-10 renal = system: TK-10 renal
OVCAR-3 ovarian = system: OVCAR-3 ovarian
SF-295 CNS = system: SF-295 CNS
COLO 205 colon = system: COLO 205 colon
CCRF-CEM leukemia = system: CCRF-CEM leukemia
EKVX NSCLC = system: EKVX NSCLC
NCI/ADR-RES ovarian = system: NCI/ADR-RES ovarian
RPMI-8226 leukemia = system: RPMI-8226 leukemia
HOP-92 NSCLC = system: HOP-92 NSCLC
RXF 393 renal = system: RXF 393 renal
SK-MEL-28 melanoma = system: SK-MEL-28 melanoma
HCT-116 colon = system: HCT-116 colon
SW-620 colon = system: SW-620 colon
A549 NSCLC = system: A549 NSCLC
SN12C renal = system: SN12C renal
OVCAR-5 ovarian = system: OVCAR-5 ovarian
NCI-H522 lung = system: NCI-H522 lung
HCT-15 colon = system: HCT-15 colon
MDA-MB-435 = system: MDA-MB-435
BT-549 breast = system: BT-549 breast
UO-31 renal = system: UO-31 renal
SK-OV-3 ovarian = system: SK-OV-3 ovarian
NCI-H23 lung = system: NCI-H23 lung
MALME-3M melanoma = system: MALME-3M melanoma
MDA-MB-231 breast = system: MDA-MB-231 breast
IGROV1 ovarian = system: IGROV1 ovarian
786-0 renal = system: 786-0 renal
LOX IMVI melanoma = system: LOX IMVI melanoma
SF-268 CNS = system: SF-268 CNS
MDA-N = system: MDA-N
SK-MEL-2 melanoma = system: SK-MEL-2 melanoma
UACC-62 melanoma = system: UACC-62 melanoma
HCC-2998 colon = system: HCC-2998 colon
K-562 leukemia = system: K-562 leukemia
KM12 colon = system: KM12 colon
SR leukemia = system: SR leukemia
U251 CNS = system: U251 CNS
PC-3 prostate = system: PC-3 prostate
UACC-257 melanoma = system: UACC-257 melanoma
MCF7 breast = system: MCF7 breast
SK-MEL-5 melanoma = system: SK-MEL-5 melanoma
OVCAR-8 ovarian = system: OVCAR-8 ovarian
A498 renal = system: A498 renal
DU-145 prostate = system: DU-145 prostate
OVCAR-4 ovarian = system: OVCAR-4 ovarian
ACHN renal = system: ACHN renal
MOLT-4 leukemia = system: MOLT-4 leukemia
CAKI-1 renal = system: CAKI-1 renal
NCI-H460 lung = system: NCI-H460 lung
SNB-19 CNS = system: SNB-19 CNS
M14 melanoma = system: M14 melanoma
T-47D breast = system: T-47D breast
HL-60(TB) leukemia = system: HL-60(TB) leukemia
HT29 colon = system: HT29 colon
SF-539 CNS = system: SF-539 CNS
HS 578T breast = system: HS 578T breast
NCI-H226 lung = system: NCI-H226 lung

OCCc1ccsc1-c1sc(-c2cc(CCO)c(-c3sccc3CCO)s2)cc1CCO
TGI (HOP-62 NSCLC): 27.6 µM | TGI (TK-10 renal): 44 µM | TGI (OVCAR-3 ovarian): 32.5 µM | TGI (SF-295 CNS): 30.3 µM | TGI (COLO 205 colon): 31 µM | TGI (CCRF-CEM leukemia): > 100 µM | TGI (EKVX NSCLC): 32.4 µM | TGI (NCI/ADR-RES ovarian): 38.5 µM | TGI (RPMI-8226 leukemia): > 100 µM | TGI (HOP-92 NSCLC): 32.6 µM | TGI (RXF 393 renal): 9.05 µM | TGI (SK-MEL-28 melanoma): 41.4 µM | TGI (HCT-116 colon): 43.8 µM | TGI (SW-620 colon): > 100 µM | TGI (A549 NSCLC): > 100 µM | TGI (SN12C renal): 63.1 µM | TGI (OVCAR-5 ovarian): 32.4 µM | TGI (NCI-H522 lung): 25.7 µM | TGI (HCT-15 colon): 40.5 µM | TGI (MDA-MB-435): 41.1 µM | TGI (BT-549 breast): 20.3 µM | TGI (UO-31 renal): 31.4 µM | TGI (SK-OV-3 ovarian): 35.8 µM | TGI (NCI-H23 lung): 41 µM | TGI (MALME-3M melanoma): 23.7 µM | TGI (MDA-MB-231 breast): 48.5 µM | TGI (IGROV1 ovarian): 29.5 µM | TGI (786-0 renal): 29 µM | TGI (LOX IMVI melanoma): 72.3 µM | TGI (SF-268 CNS): 14 µM | TGI (MDA-N): 63.5 µM | TGI (SK-MEL-2 melanoma): 29.5 µM | TGI (UACC-62 melanoma): 25.4 µM | TGI (HCC-2998 colon): 30.2 µM | TGI (K-562 leukemia): > 100 µM | TGI (KM12 colon): 11.5 µM | TGI (SR leukemia): > 100 µM | TGI (U251 CNS): 49 µM | TGI (PC-3 prostate): 24.1 µM | TGI (UACC-257 melanoma): 34.4 µM | TGI (MCF7 breast): 31 µM | TGI (SK-MEL-5 melanoma): 52.9 µM | TGI (OVCAR-8 ovarian): 29.5 µM | TGI (A498 renal): 40.3 µM | TGI (DU-145 prostate): 32.9 µM | TGI (OVCAR-4 ovarian): 34 µM | TGI (ACHN renal): 35.9 µM | TGI (MOLT-4 leukemia): > 100 µM | TGI (CAKI-1 renal): 44.3 µM | TGI (NCI-H460 lung): 32.5 µM | TGI (SNB-19 CNS): 36.5 µM | TGI (M14 melanoma): 23.7 µM

CC1=NN(c2cccc(Cl)c2)C2(SCC(=O)N2c2nc3ccccc3s2)/C1=C\c1ccccc1O (stereo not drawn)
TGI (HOP-62 NSCLC): 54.7 µM | TGI (TK-10 renal): > 100 µM | TGI (OVCAR-3 ovarian): 80.3 µM | TGI (SF-295 CNS): > 100 µM | TGI (CCRF-CEM leukemia): > 100 µM | TGI (EKVX NSCLC): > 100 µM | TGI (NCI/ADR-RES ovarian): 55.5 µM | TGI (RPMI-8226 leukemia): 40.3 µM | TGI (HOP-92 NSCLC): 46.1 µM | TGI (RXF 393 renal): 32.8 µM | TGI (T-47D breast): 37.9 µM | TGI (SK-MEL-28 melanoma): > 100 µM | TGI (HCT-116 colon): 28.2 µM | TGI (HL-60(TB) leukemia): 52.1 µM | TGI (HT29 colon): 67.4 µM | TGI (SW-620 colon): 35.8 µM | TGI (OVCAR-5 ovarian): > 100 µM | TGI (NCI-H522 lung): 42.4 µM | TGI (HCT-15 colon): 34.1 µM | TGI (MDA-MB-435): 60.2 µM | TGI (UO-31 renal): 38.5 µM | TGI (SK-OV-3 ovarian): 51.3 µM | TGI (NCI-H23 lung): 41.3 µM | TGI (MDA-MB-231 breast): 67.9 µM | TGI (IGROV1 ovarian): 80.9 µM | TGI (786-0 renal): 32.3 µM | TGI (SF-539 CNS): > 100 µM | TGI (LOX IMVI melanoma): > 100 µM | TGI (SF-268 CNS): 64.7 µM | TGI (MDA-N): 53.4 µM | TGI (SK-MEL-2 melanoma): 44.2 µM | TGI (HCC-2998 colon): 42 µM | TGI (K-562 leukemia): > 100 µM | TGI (KM12 colon): 45.1 µM | TGI (SR leukemia): 37.5 µM | TGI (HS 578T breast): 65.5 µM | TGI (U251 CNS): 53.5 µM | TGI (PC-3 prostate): 61.1 µM | TGI (UACC-257 melanoma): > 100 µM | TGI (MCF7 breast): > 100 µM | TGI (SK-MEL-5 melanoma): 32.3 µM | TGI (OVCAR-8 ovarian): 42 µM | TGI (A498 renal): 38.4 µM | TGI (NCI-H226 lung): > 100 µM | TGI (DU-145 prostate): 42.2 µM | TGI (OVCAR-4 ovarian): > 100 µM | TGI (ACHN renal): 49 µM | TGI (MOLT-4 leukemia): 42.3 µM | TGI (CAKI-1 renal): 57.5 µM | TGI (NCI-H460 lung): > 100 µM | TGI (M14 melanoma): 55.4 µM
